Measurements as given in patent US7858105B2, “Inhibitors of melanocyte tyrosinase as topical skin lighteners” (Mediquest Therapeutics, Inc., priority 2000, dated 2010).
Values after ≈ are worked out from the molar mass of the structure shown. Like-named read-outs stand apart in the source and are kept apart here.

Columns and labels:
[1] = compared with HQ; cited from earlier work
Mel-Ab melanocytes [2] = assay: mammalian-melanocyte-culture toxicity assay system; format: cell-based, mouse; details: read-out: T: concentration of compound that kills 50% of cells in the mammalian-melanocyte-culture toxicity assay system
Text: (§1) In the present invention, one or all of three in vitro bioassays can be utilized to evaluate the efficacy and toxicity of candidate skin-lightening compounds. The three bioassays characterize the compounds with regard to mammalian tyrosinase enzyme inhibition (cell free), pigmentation in melanocyte cultured cells, and cytotoxicity of mammalian cultured cells. Both cell-based pigmentation and cell-free enzymatic assays have been developed using the mammalian melanocyte cell line, Mel-Ab, a C57BL/6 mouse-derived cell line that produces high levels of melanin. A distinct advantage of this approach is that humans share substantial sequence similarities in their genes (DNA) and proteins (such as tyrosinase) with mice, relative to non-mammalian species (e.g., mushrooms). So, mouse Mel-Ab melanocytes can serve as adequate surrogates for human melanocytes for many pharmacologic purposes.
[6] It should be noted that many inhibitors identified in cell-free enzymatic assays might have subsequent difficulties with toxicity or delivery in melanocyte cell-based assays. Therefore, all three in vitro assays in combination provide an excellent characterization of candidate skin lightening compounds.
(§2) A first class of compounds based upon the template compound benzimidazolethiol (lower left structure) were tested for tyrosinase inhibition, cell culture pigment inhibition, and toxicity, by methods described in Curto, E. V., et al. (1999).

Mel-Ab melanocytes [3] = assay: mammalian-melanocyte-culture pigment assay system; format: cell-based, mouse; details: read-out: P: concentration of compound that produces 50% inhibition in the mammalian-melanocyte-culture pigment assay system
Text: as §1
(§3) These adherent murine melanocytes are grown on tissue culture plastic in medium supplemented with fetal bovine serum, 12-O-tetradecanoylphorbol-13-acetate (TPA) to stimulate cell division via down-regulation of protein kinase C, [22, 23] and cholera toxin to stimulate adenylate cyclase activity in the absence of α-MSH. Cellular lysates of Mel-Ab cells may be used as tyrosinase enzyme preparations. Multi-well plate assays have been validated for enzyme inhibition (e.g., DOPA oxidation by colorimetric measurement or radiolabeled substrate incorporation into melanin) and for pigmentation assays on cultured Mel-Ab cells. After 4 days of treatment of cultured cells, melanin content is determined using a spectrophotometer at 400+ nm. This assay can detect an apparent loss in pigmentation resulting from either inhibition of de novo synthesis (e.g. via inhibition of tyrosinase, or the adenylate cyclase pathway, or another pathway) or a cytostatic/cytotoxic mechanism. It is therefore a broad primary screen. It is used in parallel with the tyrosinase enzymatic assay to determine whether an inhibitor of pigmentation at the cellular level is acting primarily at the enzyme level.
as §2

mammalian tyrosinase [4] = target: T1, mammalian tyrosinase (Mus musculus, UniProt P11344); assay: cell-free mammalian-enzyme assay system (tyrosinase inhibition, Mel-Ab cell lysates); format: biochemical; details: read-out: E: concentration of compound that produces 50% pigment inhibition in the cell-free mammalian-enzyme assay system
T1 construct: Cellular lysates of Mel-Ab cells may be used as tyrosinase enzyme preparations; endogenous in cells; host or cells: Mel-Ab mouse melanocytes (C57BL/6-derived), cell lysate
T1 sequence (P11344 19-533): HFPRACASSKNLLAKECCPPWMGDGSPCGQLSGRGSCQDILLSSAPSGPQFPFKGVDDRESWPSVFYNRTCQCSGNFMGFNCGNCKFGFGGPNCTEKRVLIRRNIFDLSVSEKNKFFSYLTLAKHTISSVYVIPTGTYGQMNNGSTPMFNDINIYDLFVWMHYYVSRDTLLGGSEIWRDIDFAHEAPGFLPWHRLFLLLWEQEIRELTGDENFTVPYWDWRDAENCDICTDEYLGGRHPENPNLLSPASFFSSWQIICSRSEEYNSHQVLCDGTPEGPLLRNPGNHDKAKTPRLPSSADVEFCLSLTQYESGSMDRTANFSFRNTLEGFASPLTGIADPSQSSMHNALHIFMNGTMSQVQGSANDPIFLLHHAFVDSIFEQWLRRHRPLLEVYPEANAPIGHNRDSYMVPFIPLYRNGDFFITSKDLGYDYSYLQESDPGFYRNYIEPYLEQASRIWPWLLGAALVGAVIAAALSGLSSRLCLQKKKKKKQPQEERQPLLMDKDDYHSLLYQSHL
Text: as §1, §3
A distinct advantage of the screening systems (developed by the inventors of the present invention) is the focus on mammalian tyrosinase, as opposed to non-mammalian enzymes often used by other investigators, such as mushroom tyrosinase. Since the biochemical and pharmacologic characteristics of an enzyme or isozyme can vary dramatically between species of organisms (e.g., due to dissimilarities in primary, secondary, and tertiary structure), it is highly preferable that candidate topical skin lighteners intended for human use be discovered based on their biochemical action against a mammalian source of the enzyme. Mushroom tyrosinase (and in some instances plant polyphenol oxidases) has been used in the vast majority of prior inhibitor studies. […] Thus, the methods reported by the inventors of the present invention for screening against mammalian tyrosinase or within melanocytes is highly preferred over other possible screening strategies.
The substrate kinetic “affinity” of mammalian tyrosinase for L-tyrosine is approximately KM=600 μM. A potentially effective candidate skin lightening agent is considered to be desirable, active, and/or functional if it renders 50% inhibition of mammalian tyrosinase enzyme activity, at concentrations below half the enzyme's “affinity” for tyrosine in cell-free enzyme extracts (IC50≦300 μM) and pigment production in melanocyte cell cultures (IC50≦300 μM).
as §2

[5] = UV absorbance: extinction coefficient at wavelength of maximum absorbency; format: physicochemical; details: for compound extinction coefficient ε: at λmax
mammalian tyrosinase [6] = target: T1, mammalian tyrosinase; details: cited from earlier work
Salmonella = details: cited from earlier work
Mel-Ab melanocytes [7] = details: cited from earlier work
Mel-Ab melanocytes [8] = details: cited from earlier work; remark: listed apart in the source
[9] = system: Chinese hamster V79 cells; details: cited from earlier work

Row | SMILES | IC50 (Mel-Ab melanocytes [2]; Mus musculus, Mel-Ab) [µM] | IC50 (Mel-Ab melanocytes [3]; Mus musculus, Mel-Ab) [µM] | IC50 (mammalian tyrosinase [4]) [µM] | wavelength of maximum absorbency λmax [5] [nm] | compound extinction coefficient ε [5] [OD/M × cm] | also measured
1 | O=C(O)c1cc(O)ccc1O [GA, 2,5-dihydroxybenzoic acid] | – | – | – | – | – | mutagenic activity [1]: lacking the mutagenic activity
2 | COc1ccc(N)cc1OC [ID # 006] | > 1000 | 182 | 110 | – | – | –
3 | Oc1ccc2c(c1)OCO2 [ID # 009] | 775 | 209 | 98 | – | – | –
4 | Oc1ccc2[nH]ccc2c1 [ID # 026] | 367 | 153 | 54 | – | – | –
5 | NC(=S)Nc1ccccc1 [ID # 033] | > 1000 | 12 | 2 | – | – | –
6 | Sc1nc2ccccc2s1 [ID # 040] | – | – | 8 | – | – | –
7 | CC(=S)Nc1ccccc1 [ID # 054] | > 1000 | 16 | 16 | – | – | –
8 | NCCc1cccs1 [ID # 073] | > 1000 | 100 | > 1000 | – | – | –
9 | Nc1ccc2c(c1)CCC2 [ID # 079] | 472 | 71 | 73 | – | – | –
10 | COc1ccc(CS)cc1 [ID # 082] | 500 | 81 | 5 | 275 | 1000 | –
11 | CC(=O)Nc1ccc(S)cc1 [ID # 083] | 542 | 82 | 19 | 265 | 4700 | –
12 | COc1cccc2[nH]c(S)nc12 [ID # 084] | – | – | 0.07 | 310 | 10000 | IC50 (Mel-Ab melanocytes [2]): > 1000 µM; IC50 (Mel-Ab melanocytes [3]): 1.6 µM
13 | CCOc1ccc2nc(S)sc2c1 [ID # 091] | – | – | > 1000 | – | – | IC50 (Mel-Ab melanocytes [2]): > 1000 µM; IC50 (Mel-Ab melanocytes [3]): > 1000 µM
14 | COC(=O)c1cccc(N)c1 [ID # 092] | > 1000 | 236 | 79 | – | – | –
15 | COc1ccc(OC)c(S)c1 [ID # 093] | – | – | 500 | 305 | 2700 | IC50 (Mel-Ab melanocytes [2]): 200 µM; IC50 (Mel-Ab melanocytes [3]): 200 µM
16 | [Se]=c1[nH]c2ccccc2[nH]1 [ID # 098] | – | – | 0.8 | – | – | IC50 (Mel-Ab melanocytes [2]): 132 µM; IC50 (Mel-Ab melanocytes [3]): 14 µM
17 | COc1cccc(S)c1 [ID # 099] | 202 | 85 | 53 | 265 | 3000 | –
18 | COc1ccc(C(N)=S)cc1 [ID # 100] | > 1000 | 62 | 32 | – | – | –
19 | CSc1ccc(S)cc1 [ID # 102] | 126 | 115 | 0.24 | 280 | 2300 | –
20 | COc1ccc(S)cc1OC [ID # 103] | > 1000 | 8 | 8 | 250 | 4300 | –
21 | S=c1[nH]c2cccnc2[nH]1 [ID # 135] | – | – | 4 | – | – | IC50 (Mel-Ab melanocytes [2]): > 1000 µM; IC50 (Mel-Ab melanocytes [3]): 256 µM
22 | Sc1nc2ccccc2[nH]1 [ID # 138] | – | – | 0.25 | 300 | 14300 | –
23 | Cc1cccc2[nH]c(S)nc12 [ID # 140] | – | – | 0.12 | 305 | 6300 | IC50 (Mel-Ab melanocytes [2]): > 1000 µM; IC50 (Mel-Ab melanocytes [3]): 2.4 µM
24 | CC(=O)Nc1ccc(SC(C)=O)cc1 [ID # 148] | – | – | 500 | 255 | 3300 | IC50 (Mel-Ab melanocytes [2]): 125 µM; IC50 (Mel-Ab melanocytes [3]): 30 µM
25 | CC(=O)n1c(=S)[nH]c2ccccc21 [ID # 205] | 35 | 8.3 | 0.5 | – | – | –
26 | Oc1ccc(O)cc1 [hydroquinone] | – | – | – | – | – | inhibition of the mammalian tyrosinase enzyme (in words) (mammalian tyrosinase [6]): minimal enzymatic inhibition; inhibition of the mammalian tyrosinase enzyme (in words) (mammalian tyrosinase [6]; listed as HQ): not an effective inhibitor; mutagenicity in Salmonella (Salmonella): mutagenic; IC50 on Mel-Ab culture (Mel-Ab melanocytes [7]; positive control, owing to cytotoxicity, not inhibition of pigmentation per se): low micrograms per milliliter range; cytotoxicity to cultured mammalian melanocytes (in words) (Mel-Ab melanocytes [8]): potent cytotoxicity; cytotoxicity to cultured mammalian melanocytes (in words) (Mel-Ab melanocytes [8]; listed as HQ): cytotoxic; mutagenicity in mammalian Chinese hamster V79 cells [9]: mutagenic
27 | COC(=O)c1cc(O)ccc1O [methyl gentisate] | – | – | – | – | – | IC50 against tyrosinase activity in cell-free assays (mammalian tyrosinase [6]; Curto et al. (1999)): 11.2 ± 4 mg/L (≈ 66.6 µM); mutagenic activity [1]: lacking the mutagenic activity; IC50 in melanocyte cell cultures (Mel-Ab melanocytes [7]; Curto et al. (1999)): 30.9 ± 5 mg/L (≈ 184 µM); inhibition of melanin accumulation (in words) (Mel-Ab melanocytes [7]; murine melanocyte cell culture primary screen): moderately potent inhibitor; melanocyte cytotoxicity IC50 (Mel-Ab melanocytes [8]; Curto et al. (1999)): 118.7 ± 12 mg/L
